Assay results reported in patent US9655982B2, “Formation and uses of europium complexes” (Wayne State University, priority 2010, dated 2017).
“And” between values parts separate entries of the source, which are not always exact repeats. Equal entries are not always repeated. “Also recorded” adds a separate entry of the source.

Assay: Cyclic voltammetry: anodic peak potentials of aqueous Eu(II) cryptates vs ferrocene/ferrocenium (oxidative stability)
Type: physicochemical
Conditions: for Increase in oxidative stability of Eu(II) compared to cryptand 3: difference in anodic peak potential, Eu(II) complex of the cryptand; for Anodic peak potentials (Epa) with respect to ferrocene/ferrocenium (Fc/Fc+): aqueous MOPS 0.01 M pH 7.5, Et4NClO4 0.05 M, Ar, ambient temperature, scan rate 150 mV/s, mean ± standard error
Description: To synthesize the diverse set of cryptands 2 and 4-6, a three-step procedure was devised that involved common intermediates 7, 9, and 11 (Scheme 1). Briefly, the synthesis involved the conversion of the appropriate ethylenediols or catechols to the corresponding ditosylates (7, 9, and 11) followed by ring closure with 1,4,10,13-tetraoxa-7,16-diazacyclooctadecane, 2,2′-(ethylenedioxy)bis(ethylamine) or 1,4,10,13-tetrathia-7,16-diazacyclooctadecane.
To synthesize the diverse set of cryptands 1-6, a three-step procedure was devised that involved common intermediates 7, 9, and 11 (Scheme 1). Briefly, the synthesis involved the conversion of the appropriate ethylenediols or catechols to the corresponding ditosylates (7, 9, and 11) followed by ring closure with 1,4,10,13-tetraoxa-7,16-diazacyclooctadecane, 2,2′-(ethylenedioxy)bis(ethylamine), or 1,4,10,13-tetrathia-7,16-diazacyclooctadecane. […] The resulting solution was placed in a standard three-electrode cell (glassy-carbon working electrode, Pt-wire auxiliary electrode, and Ag/AgCl (1.0 M KCl) reference electrode). The potential at the carbon electrode was held at −0.8 V (vs Ag/AgCl) while stirring to produce Eu^II in situ for metalation.
^1H NMR spectra were obtained using a Varian Unity 300 (300 MHz) spectrometer and a Mercury 400 (400 MHz) spectrometer, ^13C NMR spectra were obtained using a Varian Unity 300 (75 MHz) spectrometer and a Mercury 400 (101 MHz) spectrometer. ^19F NMR spectra were obtained using Varian Unity 300 (282 MHz) spectrometer. […] NMR data are assumed to be first order, and the apparent multiplicity is reported as “s”=singlet, “d”=doublet, “dd”=doublet of doublets, “t”=triplet, “td”=triplet of doublets, “q”=quartet, “m”=multiplet, or “brs”=broad singlet. Italicized elements are those that are responsible for the shifts. High-resolution electrospray ionization mass spectra (HRESIMS) were obtained on an electrospray time-of-flight high-resolution Waters Micromass LCT Premier XE mass spectrometer. Cyclic voltammetric analyses were performed using a WaveNow USB potentiostat (Pine Research Instrumentation). A standard three-electrode cell was used with a glassy-carbon working electrode, a Pt-wire auxiliary electrode, and a Ag/AgCl reference electrode (1.0 M KCl). All electrochemical experiments were performed under an Ar atmosphere at ambient temperature with Et4NClO4 (0.05 M) as the supporting electrolyte, an aqueous solution of 3-(N-morpholino)propanesulfonic acid (MOPS, 0.01 M, pH 7.5) as the solvent, and the ferrocene/ferrocinium (Fc/Fc+) redox couple as an internal standard. From the initial potential of the analysis (−1.5 V), the voltage was ramped to 0.75 V and back to −1.5 V at a scan rate of 150 mV/s. […] After each measurement, ferrocene (6.7 mM in acetonitrile) was added to the sample (0.13 mM ferrocene after addition) and the measurement was repeated to enable referencing to Fc/Fc+.
To an aqueous solution of 3-(N-morpholino)propanesulfonic acid (MOPS) (0.01 M, pH 7.5), Et4NClO4 (0.05 M), and Eu(NO3)3.5H2O (1.1 mM, 1 equiv) was added a solution of the desired cryptand (12 mM, 1.2 equiv) in acetonitrile, and the resulting mixture was sparged with Ar for 5 minutes. The potential of the resulting solution was held at −0.8 V (30 minutes per 0.01 mmol of Eu(NO3)3.5H2O) while stirring under constant sparging with Ar. Immediately after holding the potential at −0.8 V, cyclic voltammograms were obtained in the potential range of −1.5 to 0.75 V at a scan rate of 150 mV/s. After acquiring the voltammogram, ferrocene (6.7 mM in acetonitrile, 0.1 equiv) was added, and another cyclic voltammogram was obtained. These cyclic voltammetric experiments were repeated 3-6 times for each ligand.

CC1(C)OCCN2CCOCCOCCN(CCOC1(C)C)CCOC(C)(C)C(C)(C)OCC2 [cryptand 2, 5,5,6,6,14,14,15,15-Octamethyl-4,7,13,16,21,24-hexaoxa-1,10-diazabicyclo[8.8.8]hexacosane]
Oxidative stability compared to unmodified cryptand 1 (in words) (cyclic voltammetric data of Eu-containing solutions): increased oxidative stability

Fc1ccc2c(c1)OCCN1CCOCCOCCN(CCOCCOCC1)CCO2 [cryptand 4, 5,6-(4-Fluorobenzo)-4,7,13,16,21,24-hexaoxa-1,10-diazabicyclo[8.8.8]hexacos-5-ene]
Increase in oxidative stability of Eu(II) compared to cryptand 3: 133 mV and 129 mV

O=[N+]([O-])[O-].O=[N+]([O-])[O-].O=[N+]([O-])[O-].[Eu+3] [Eu(NO3)3, reference compound]
Anodic peak potentials (Epa) with respect to ferrocene/ferrocenium (Fc/Fc+): −0.701 ± 0.030 V vs, Fc/Fc^+

c1ccc2c(c1)OCCN1CCOCCOCCN(CCO2)CCOc2ccccc2OCC1 [cryptand 5, 5,6,14,15-Dibenzo-4,7,13,16,21,24-hexaoxa-1,10-diazabicyclo[8.8.8]hexacosane]
Anodic peak potential compared to mono-phenyl substituted cryptand 3 (in words) (p=0.76): no significant difference

hemoglobin: Human hemoglobin from RayBiotech Inc.; Fe(II) oxidation used as biological comparison [reference compound]
Anodic peak potentials (Epa) with respect to ferrocene/ferrocenium (Fc/Fc+): −0.070 ± 0.003 V vs, Fc/Fc^+

c1ccc2c(c1)OCCN1CCSCCSCCN(CCO2)CCSCCSCC1 [cryptand 6, 5,6-Benzo-4,7-dioxa-13,16,21,24-tetrathia-1,10-diazabicyclo[8.8.8]hexacos-5-ene]
Oxidative potential more positive than hemoglobin (Fe^2+/3+) (cryptand with Eu(II)): 35 mV
Oxidative potential more positive than the Eu aqua ion (cryptand with Eu(II)): 666 mV
Increase in oxidative stability of Eu(II) compared to cryptand 3: 173 mV

Fc1ccc2c(c1)OCCN1CCOCCOCCN(CCOCCOCC1)CCO2 [4-Eu]
Oxidative stability compared to hemoglobin (in words) (Fe(II) in hemoglobin, p=0.64, p=0.45): statistically identical; also recorded: not different
Anodic peak potentials (Epa) with respect to ferrocene/ferrocenium (Fc/Fc+): −0.079 ± 0.007 V vs, Fc/Fc^+

c1ccc2c(c1)OCCN1CCSCCSCCN(CCO2)CCSCCSCC1 [6-Eu]
Anodic peak potentials (Epa) with respect to ferrocene/ferrocenium (Fc/Fc+): −0.035 ± 0.010 V vs, Fc/Fc^+
